Experimental data: patent US20200190151A1, “KV1.3-BLOCKING VENOM PEPTIDE VARIANTS AND RELATED USES” (The Scripps Research Institute, priority 2016, published 2020)
Entries after “also recorded” stand apart in the source; their conditions may differ. Like-named read-outs stand apart in the source and are kept apart here.

Key:
Kv1.3 channel [1] = format: cell-based, human
Kv1.3 channel [2] = biological target: T1, Kv1.3 channel (Homo sapiens, UniProt P22001); experiment: Whole-cell patch clamp electrophysiology, HEK293 Kv1.3 stable cells; format: cell-based
T1 construct: expressed in transfected cells
Procedure: (§1) The variegated region of each variant was extracted based on the known flanking sequences. The ratio between number of unique toxins and count of all reads represented the diversity of a selected library. Highly enriched variants versus those that were not enriched were chosen and their affinity to Kv1.3 were assessed and ranked. In general, the enrichment factor of a variant is positively correlated with its affinity to Kv1.3 (FIG. 4). […] To test the critical property of specificity, patch clamp analysis of S1-2 was also carried out on HEK293 cells expressing other Kv1 family members including Kv1.1 through Kv1.7 and the hERG channel.
(§2) Electrophysiology recording: HEKA EPC 10 USB patch clamp amplifier (from HEKA Elektronik, Germany) was used for the whole cell recording. A cover slip with abundant single HEK293 Kv1.3 stable cells on the surface was removed and placed into a continuously perfused (approximately 1-2 ml/minute) recording chamber mounted on an inverted microscope. The Kv1.3 current was recorded from single cell using standard whole cell recording techniques. The cell was voltage clamped at a holding potential of −80 mV. Outward potassium currents were measured using the whole-cell configuration of the patch clamp technique at a test potential of 40 mV from a holding potential of −80 mV. Current records were acquired at 2-5 KHz and filtered at 1-2 KHz. […]

Kv1.1 = biological target: T2, Kv1.1 (Homo sapiens, UniProt Q09470); experiment: Patch clamp on HEK293 cells expressing Kv1.1; format: cell-based
T2 construct: expressed in transfected cells; host or cells: HEK293
Procedure: as §1, §2

Kv1.6 = biological target: T3, Kv1.6 (Homo sapiens, UniProt P17658); experiment: Patch clamp on HEK293 cells expressing Kv1.6; format: cell-based
T3 construct: expressed in transfected cells; host or cells: HEK293
Procedure: as §1, §2

[3] = lentivirus encoding membrane tethered peptide

Kv1.3 channel, sequence (P22001 53-575 limits assumed): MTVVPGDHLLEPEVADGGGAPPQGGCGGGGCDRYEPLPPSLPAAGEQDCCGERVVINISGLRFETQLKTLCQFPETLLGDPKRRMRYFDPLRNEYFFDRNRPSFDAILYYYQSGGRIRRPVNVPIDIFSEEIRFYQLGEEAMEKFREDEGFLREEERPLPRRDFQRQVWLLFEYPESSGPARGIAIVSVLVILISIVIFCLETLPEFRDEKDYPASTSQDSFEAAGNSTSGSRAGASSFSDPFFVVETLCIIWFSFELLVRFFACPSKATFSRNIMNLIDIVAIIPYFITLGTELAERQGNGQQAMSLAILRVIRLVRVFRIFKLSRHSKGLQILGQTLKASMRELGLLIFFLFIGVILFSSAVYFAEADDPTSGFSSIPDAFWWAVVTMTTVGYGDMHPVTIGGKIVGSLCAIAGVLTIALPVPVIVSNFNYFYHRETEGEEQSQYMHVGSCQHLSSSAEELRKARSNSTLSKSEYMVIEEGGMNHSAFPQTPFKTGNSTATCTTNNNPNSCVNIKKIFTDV
T1 sequence (P22001 whole entry): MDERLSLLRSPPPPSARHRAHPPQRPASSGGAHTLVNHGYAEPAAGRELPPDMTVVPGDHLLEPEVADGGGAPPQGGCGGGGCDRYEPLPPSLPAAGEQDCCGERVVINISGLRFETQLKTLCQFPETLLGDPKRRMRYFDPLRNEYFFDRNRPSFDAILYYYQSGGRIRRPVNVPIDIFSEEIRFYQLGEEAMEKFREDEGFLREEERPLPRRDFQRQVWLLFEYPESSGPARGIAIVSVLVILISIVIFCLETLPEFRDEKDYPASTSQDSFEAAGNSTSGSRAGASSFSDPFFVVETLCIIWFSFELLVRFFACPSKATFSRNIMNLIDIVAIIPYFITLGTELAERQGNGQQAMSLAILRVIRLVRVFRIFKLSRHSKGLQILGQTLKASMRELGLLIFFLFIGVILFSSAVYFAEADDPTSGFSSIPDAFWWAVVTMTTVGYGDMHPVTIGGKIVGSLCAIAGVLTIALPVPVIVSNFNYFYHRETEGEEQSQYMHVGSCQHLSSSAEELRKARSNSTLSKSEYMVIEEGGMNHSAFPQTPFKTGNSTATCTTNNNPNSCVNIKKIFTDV
T3 sequence (P17658 whole entry): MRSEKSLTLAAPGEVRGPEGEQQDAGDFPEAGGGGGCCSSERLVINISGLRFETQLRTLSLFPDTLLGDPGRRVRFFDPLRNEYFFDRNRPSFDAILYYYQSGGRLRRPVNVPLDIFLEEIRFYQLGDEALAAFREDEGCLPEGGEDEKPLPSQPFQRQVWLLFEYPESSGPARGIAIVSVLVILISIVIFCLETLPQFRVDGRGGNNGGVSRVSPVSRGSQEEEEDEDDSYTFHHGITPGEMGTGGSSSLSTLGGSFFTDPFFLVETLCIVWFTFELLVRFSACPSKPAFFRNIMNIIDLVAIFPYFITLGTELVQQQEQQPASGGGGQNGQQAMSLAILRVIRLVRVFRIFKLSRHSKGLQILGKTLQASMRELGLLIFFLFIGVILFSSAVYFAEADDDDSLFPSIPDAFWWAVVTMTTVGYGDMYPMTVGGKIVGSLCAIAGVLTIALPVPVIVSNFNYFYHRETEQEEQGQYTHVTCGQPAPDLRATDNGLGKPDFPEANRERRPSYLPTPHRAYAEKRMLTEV
T2 sequence (Q09470 whole entry): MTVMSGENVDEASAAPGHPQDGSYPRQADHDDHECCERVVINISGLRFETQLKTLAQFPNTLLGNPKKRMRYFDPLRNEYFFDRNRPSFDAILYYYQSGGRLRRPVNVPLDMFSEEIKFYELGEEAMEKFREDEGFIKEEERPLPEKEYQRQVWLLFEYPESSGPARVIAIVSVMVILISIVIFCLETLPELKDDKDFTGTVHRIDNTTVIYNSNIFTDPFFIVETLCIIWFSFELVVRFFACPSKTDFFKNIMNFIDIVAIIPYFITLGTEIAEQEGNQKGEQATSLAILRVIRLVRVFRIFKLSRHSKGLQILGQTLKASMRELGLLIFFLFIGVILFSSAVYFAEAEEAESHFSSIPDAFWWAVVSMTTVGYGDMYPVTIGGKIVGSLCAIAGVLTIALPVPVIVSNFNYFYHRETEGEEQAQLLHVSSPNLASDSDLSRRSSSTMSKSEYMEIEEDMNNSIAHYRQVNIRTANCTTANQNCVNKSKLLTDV

With Anuroctoxin the “Activation of tdTomato reporter in Kv1.3 reporter cells, in words” value (shortened to “Activation of tdTomato reporter”) (Kv1.3 channel [1]; [3]) was “stimulated the Kv1.3 reporter cells to express tdTomato fluorescent protein”.

For “CllTx1 (ITINVKCTSPQQCLRPCKDRFGQHAGGKCINGKCKCYP)”, the “Block / inhibition of Kv1.3 channel, in words” value (Kv1.3 channel [2]) was “strongly blocked; also recorded: potently blocked”.

In the case of “Exendin-4: GLP-1 receptor targeting peptide, negative control lentivirus”, the “Activation of tdTomato reporter” value (Kv1.3 channel [1]; [3]) is reported as “no activity”.

In the case of ShK, the “Block / inhibition of Kv1.3 channel, in words” value (Kv1.3 channel [2]) is reported as “comparable inhibition”, the “Effect on Kv1.1, in words” value (Kv1.1) is reported as “comparable inhibition” and the “Effect on Kv1.6, in words” value (Kv1.6) is reported as “comparable inhibition”. The “Activation of tdTomato reporter” value (Kv1.3 channel [1]; [3]) was “stimulated the Kv1.3 reporter cells to express tdTomato fluorescent protein”.

In the case of Vc1.1, the “Activation of tdTomato reporter” value (Kv1.3 channel [1]) is reported as “no activity”.
